Legend:
RARα = molecular target: T1, RARα (Homo sapiens, UniProt P10276); assay: Ligand binding assay, RARα; conditions: receptor expressed in Baculovirus; [3H] all-trans retinoic acid; Cheng-Prussof from IC50
T1 construct: made in house; used as extract protein
T1 sequence (P10276 1-462): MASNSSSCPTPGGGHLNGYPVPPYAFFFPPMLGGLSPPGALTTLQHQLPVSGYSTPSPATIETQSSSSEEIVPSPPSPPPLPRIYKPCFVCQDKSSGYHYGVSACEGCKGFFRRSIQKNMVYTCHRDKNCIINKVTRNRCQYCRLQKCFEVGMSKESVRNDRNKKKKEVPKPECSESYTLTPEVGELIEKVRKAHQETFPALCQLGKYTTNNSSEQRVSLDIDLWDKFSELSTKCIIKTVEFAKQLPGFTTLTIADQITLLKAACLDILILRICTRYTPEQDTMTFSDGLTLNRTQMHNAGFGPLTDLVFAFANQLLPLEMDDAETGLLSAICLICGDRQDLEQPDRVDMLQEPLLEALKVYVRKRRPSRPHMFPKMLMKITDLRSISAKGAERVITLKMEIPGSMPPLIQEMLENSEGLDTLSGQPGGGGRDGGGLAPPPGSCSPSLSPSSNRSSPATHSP
Experimental: (§1) A holoreceptor transactivation assay and a ligand binding assay which measure the ability of the compounds of the invention to bind to the several retinoid receptor subtypes, respectively, are described in published PCT Application No. WO W093/11755 (particularly on pages 30-33 and 37-41) published on Jun. 24, 1993, the specification of which is also incorporated herein by reference. A description of the ligand binding assay is also provided below.
(§2) All binding assays were performed in a similar fashion. All six receptor types were derived from the expressed receptor type (RAR α, β, Γ and RXR α, β, Γ) expressed in Baculovirus. Stock solutions of all compounds were prepared as 10 mM ethanol solutions and serial dilutions carried out into 1:1 DMSO; ethanol. Assay buffers consisted of the following for all six receptor assays: 8% glycerol, 120 mM KCl, 8 mM Tris, 5 mM CHAPS 4 mM DTT and 0.24 mM PMSF, pH-7.4@room temperature.
(§3) All receptor biding assays were performed in the same manner. The final assay volume was 250 μl and contained from 10-40 μg of extract protein depending on receptor being assayed along with 5 nM of [^3H] all-trans retinoic acid or 10 nM [^3H] 9-cis retinoic acid and varying concentrations of competing ligand at concentrations that ranged from 0-10^−5 M. The assays were formatted for a 96 well minitube system. Incubations were carried out at 4° C. until equilibrium was achieved. Non-specific binding was defined as that binding remaining in the presence of 1000 nM of the appropriate unlabeled retinoic acid isomer. At the end of the incubation period, 50 μl of 6.25% hydroxyapitite was added in the appropriate wash buffer. The wash buffer consisted of 100 mM KCl, 10 mM Tris and either 5 mM CHAPS (RXR α, β, Γ) or 0.5% Triton X-100 (RAR α, β, Γ). The mixture was vortexed and incubated for 10 minutes at 4° C., centrifuged and the supernatant removed. The hydroxyapitite was washed three more times with the appropriate wash buffer. The receptor-ligand complex was adsorbed by the hydroxyapitite. The amount of receptor-ligand complex was determined by liquid scintillation counting of hydroxyapitite pellet.
(§4) After correcting for non-specific binding, IC50 values were determined. […] The IC50 value was determined graphically from a loglogit plot of the data. The […] were determined by application of the Cheng-Prussof equation to the IC50 values, the labeled ligand concentration and the Kd of the labeled ligand.
(§5) The results of ligand binding assay are expressed in Kd numbers. (See Chena et al. Biochemical Pharmacology Vol. 22 pp 3099-3108, expressly incorporated herein by reference.)

RARβ = molecular target: T2, RARβ (Homo sapiens, UniProt P10826); assay: Ligand binding assay, RARβ; conditions: receptor expressed in Baculovirus; Cheng-Prussof from IC50
T2 construct: made in house; used as extract protein
T2 sequence (P10826 1-455): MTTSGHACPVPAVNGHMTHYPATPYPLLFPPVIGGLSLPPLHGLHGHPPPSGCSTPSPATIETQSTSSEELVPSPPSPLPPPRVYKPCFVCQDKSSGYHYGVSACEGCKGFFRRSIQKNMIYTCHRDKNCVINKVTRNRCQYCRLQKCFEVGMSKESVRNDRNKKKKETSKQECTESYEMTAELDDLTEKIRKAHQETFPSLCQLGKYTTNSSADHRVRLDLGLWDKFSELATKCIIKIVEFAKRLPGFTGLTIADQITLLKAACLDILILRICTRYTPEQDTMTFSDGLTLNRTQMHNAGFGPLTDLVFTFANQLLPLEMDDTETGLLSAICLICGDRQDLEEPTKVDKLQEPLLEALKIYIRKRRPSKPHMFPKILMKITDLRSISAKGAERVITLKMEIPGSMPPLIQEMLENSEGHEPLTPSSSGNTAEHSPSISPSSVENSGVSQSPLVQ
Experimental: as §1, §2
as §3, with “The wash buffer consisted of 100 mM KCl, 10 mM Tris and either 5 mM CHAPS (RXR α, β, Γ) or 0.5% Triton X-100 (RAR α, β, Γ). The mixture was vortexed and incubated for 10 minutes at 4° C., centrifuged and the supernatant removed. The hydroxyapitite was washed three more times with the appropriate wash buffer. The receptor-ligand complex was adsorbed by the hydroxyapitite.” left out
as §4, with “ligand. […]” for “ligand.”

RARΓ = molecular target: T3, RARΓ (Homo sapiens, UniProt P13631); assay: Ligand binding assay, RARΓ; conditions: receptor expressed in Baculovirus; Cheng-Prussof from IC50
T3 construct: made in house; used as extract protein
T3 sequence (P13631 1-454): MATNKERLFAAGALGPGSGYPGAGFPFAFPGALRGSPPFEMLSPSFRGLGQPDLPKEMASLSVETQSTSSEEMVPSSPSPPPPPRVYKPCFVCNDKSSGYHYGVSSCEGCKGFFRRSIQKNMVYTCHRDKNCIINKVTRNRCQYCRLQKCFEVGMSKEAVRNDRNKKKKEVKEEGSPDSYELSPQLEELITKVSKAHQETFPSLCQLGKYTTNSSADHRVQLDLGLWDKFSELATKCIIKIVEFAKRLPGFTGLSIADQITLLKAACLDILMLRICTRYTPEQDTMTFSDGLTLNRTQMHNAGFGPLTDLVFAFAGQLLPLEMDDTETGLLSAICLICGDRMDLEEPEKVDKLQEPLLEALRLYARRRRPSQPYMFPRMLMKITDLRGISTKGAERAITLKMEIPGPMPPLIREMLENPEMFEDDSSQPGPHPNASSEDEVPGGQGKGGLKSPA
Experimental: as §1, §2
as §3, with “The wash buffer consisted of 100 mM KCl, 10 mM Tris and either 5 mM CHAPS (RXR α, β, Γ) or 0.5% Triton X-100 (RAR α, β, Γ). The mixture was vortexed and incubated for 10 minutes at 4° C., centrifuged and the supernatant removed. The hydroxyapitite was washed three more times with the appropriate wash buffer. The receptor-ligand complex was adsorbed by the hydroxyapitite.” left out
as §4, with “ligand. […]” for “ligand.”

RXRα = molecular target: T4, RXRα (Homo sapiens, UniProt P19793); assay: Ligand binding assay, RXRα; conditions: receptor expressed in Baculovirus; Cheng-Prussof from IC50
T4 construct: made in house; used as extract protein
T4 sequence (P19793 1-462): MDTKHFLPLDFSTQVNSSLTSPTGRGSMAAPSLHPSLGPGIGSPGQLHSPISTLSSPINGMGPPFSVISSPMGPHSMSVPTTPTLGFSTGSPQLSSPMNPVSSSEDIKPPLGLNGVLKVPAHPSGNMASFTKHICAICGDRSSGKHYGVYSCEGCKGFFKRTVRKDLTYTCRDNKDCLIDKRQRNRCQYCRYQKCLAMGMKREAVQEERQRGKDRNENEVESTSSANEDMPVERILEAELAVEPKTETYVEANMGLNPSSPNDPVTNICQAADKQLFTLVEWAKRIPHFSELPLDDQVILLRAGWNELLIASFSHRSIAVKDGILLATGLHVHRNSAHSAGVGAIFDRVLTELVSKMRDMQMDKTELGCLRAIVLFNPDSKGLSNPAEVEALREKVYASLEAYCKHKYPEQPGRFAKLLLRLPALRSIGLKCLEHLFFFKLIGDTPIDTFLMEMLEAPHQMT
Experimental: as §1, §2, §3, §4, §5

RXRβ = molecular target: T5, RXRβ (UniProt P28704); assay: Ligand binding assay, RXRβ; conditions: receptor expressed in Baculovirus; Cheng-Prussof from IC50
T5 construct: All six receptor types were derived from the expressed receptor type (RAR α, β, Γ and RXR α, β, Γ) expressed in Baculovirus
T5 sequence (P28704 1-520): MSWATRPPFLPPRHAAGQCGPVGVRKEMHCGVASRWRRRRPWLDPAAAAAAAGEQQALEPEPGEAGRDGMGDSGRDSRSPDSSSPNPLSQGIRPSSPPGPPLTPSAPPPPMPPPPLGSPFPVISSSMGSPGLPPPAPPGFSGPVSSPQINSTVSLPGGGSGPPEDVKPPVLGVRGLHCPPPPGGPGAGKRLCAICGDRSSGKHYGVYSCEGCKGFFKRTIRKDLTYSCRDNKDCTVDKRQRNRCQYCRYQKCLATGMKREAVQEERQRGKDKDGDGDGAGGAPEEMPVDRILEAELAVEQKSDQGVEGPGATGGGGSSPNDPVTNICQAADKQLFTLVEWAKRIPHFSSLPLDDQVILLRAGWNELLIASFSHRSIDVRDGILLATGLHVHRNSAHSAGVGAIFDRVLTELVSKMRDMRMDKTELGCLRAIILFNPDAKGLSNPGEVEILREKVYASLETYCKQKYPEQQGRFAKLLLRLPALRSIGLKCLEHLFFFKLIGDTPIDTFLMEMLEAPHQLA
Experimental: (§6) A description of the ligand binding assay is also provided below.
as §2
as §3, with “At the end of the incubation period, 50 μl of 6.25% hydroxyapitite was added in the appropriate wash buffer.” left out
as §4
(§7) The results of ligand binding assay are expressed in Kd numbers.

RXRΓ = molecular target: T6, RXRΓ (UniProt P28705); assay: Ligand binding assay, RXRΓ; conditions: receptor expressed in Baculovirus; Cheng-Prussof from IC50
T6 construct: All six receptor types were derived from the expressed receptor type (RAR α, β, Γ and RXR α, β, Γ) expressed in Baculovirus
T6 sequence (P28705 1-463): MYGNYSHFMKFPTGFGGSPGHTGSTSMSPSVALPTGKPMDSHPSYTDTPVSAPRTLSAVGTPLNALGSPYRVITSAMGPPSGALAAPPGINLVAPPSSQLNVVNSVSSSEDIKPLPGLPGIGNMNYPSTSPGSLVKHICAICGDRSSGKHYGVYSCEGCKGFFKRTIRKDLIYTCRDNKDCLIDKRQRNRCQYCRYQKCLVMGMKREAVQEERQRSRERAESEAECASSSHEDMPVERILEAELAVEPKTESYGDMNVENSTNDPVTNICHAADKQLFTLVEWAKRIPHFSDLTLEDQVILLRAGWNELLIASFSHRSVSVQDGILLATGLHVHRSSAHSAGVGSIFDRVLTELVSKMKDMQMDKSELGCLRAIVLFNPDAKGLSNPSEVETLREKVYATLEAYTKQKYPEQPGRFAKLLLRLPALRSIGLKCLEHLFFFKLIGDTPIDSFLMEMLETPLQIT
Experimental: as §6, §2
as §3, with “At the end of the incubation period, 50 μl of 6.25% hydroxyapitite was added in the appropriate wash buffer.” left out
as §4, §7

Row | Compound | Kd (RARα) | Kd (RARβ) | Kd (RARΓ) | Kd (RXRα) | Kd (RXRβ) | Kd (RXRΓ)
1 | 2-Fluoro-4-[(3′,5′-di-t-butyl)phenylcarbamoyl]benzoic Acid [Compound 6] | – | – | – | > 1000 nM | > 1000 nM | > 1000 nM
2 | CC(C)(C)c1cc(C(=O)Nc2ccc(C(=O)O)c(F)c2)c(O)c(C(C)(C)C)c1 [Compound 8] | 77 nM | > 1000 nM | > 1000 nM | > 1000 nM | > 1000 nM | > 1000 nM
3 | CC(C)(C)c1cc(C(=O)Nc2cc(F)c(C(=O)O)c(F)c2)cc(C(C)(C)C)c1 [Compound 12] | 87 nM | – | – | – | > 1000 nM | > 1000 nM

The remaining lines, values ahead:

Row | Kd (RARα) | Kd (RARβ) | Kd (RARΓ) | Kd (RXRα) | Kd (RXRβ) | Kd (RXRΓ) | Compound
4 | 19 nM | > 1000 nM | > 1000 nM | > 1000 nM | > 1000 nM | > 1000 nM | CC(C)(C)c1cc(C(=O)Nc2ccc(C(=O)O)cc2)cc(C(C)(C)C)n1 [Compound 4]
5 | 37 nM | > 1000 nM | > 1000 nM | > 1000 nM | > 1000 nM | > 1000 nM | CC(C)(C)c1cc(C(=O)Nc2ccc(C(=O)O)cc2)cc(C(C)(C)C)c1 [Compound 15, reference compound]
6 | 62 nM | – | – | – | > 1000 nM | > 1000 nM | CC(C)(C)c1cc(C(=O)Nc2cc(F)c(C(=O)O)c(F)c2)cc(C(C)(C)C)n1 [Compound 10]
7 | 94 nM | – | – | – | > 1000 nM | > 1000 nM | CC(C)(C)c1cc(C(=O)Nc2ccc(C(=O)O)c([N+](=O)[O-])c2)cc(C(C)(C)C)n1 [Compound 14]
